Experimental data reported in patent publication US20240377291A1, “AZETIDINE SUBSTITUTED ROSAMINES USEFUL FOR STAINING MITOCHONDRIA” (TOCRIS COOKSON LIMITED, priority 2021, published 2024).

What was measured:
Type in all cases: cell-based
[1] = system: mitochondria in HeLa cells; assay: Co-localization with TOM20 antibody in fixed HeLa cells (probe added before fixation)
Excerpt: In each experiment, an antibody for the mitochondrial marker TOM20 has also been added. Co-localization of TOM20 and mitochondrial probes is directly compared in the merged data.

[2] = system: mitochondria in COS-7 cells; assay: Mitochondrial membrane de-polarisation experiments (CCCP) in COS-7 cells; settings: for mitochondrial signal after CCCP Chase (depolarization after staining) / mitochondrial accumulation after depolarizing the membrane potential with CCCP before staining: 100 nM dye 30 minutes; for mitochondrial signal after CCCP Chase (depolarization after staining): then 20 μM CCCP 30 minutes; for mitochondrial accumulation after depolarizing the membrane potential with CCCP before staining: 20 μM CCCP pre-treatment 30 minutes
Procedure: COS-7 cells were pre-treated with media or 20 μM CCCP for 30 minutes followed by a staining step with 100 nM COMPOUND 5 or 100 nM Comparator (MitoTracker Deep Red FM) for 30 minutes in the presence/absence of 20 μM CCCP. After the staining, excessive dye was washed out with media, with or without 20 μM CCCP for 30 minutes.

[3] = system: mitochondria in HeLa cells; assay: Post-fixation staining of HeLa cells, intensity profiles compared with a Comparator added before fixation; settings: HeLa cells fixed with 4% PFA 20 min; COMPOUND 5 75 nM added after fixation
Procedure: COMPOUND 5 and the Comparator have distinct absorption and emission maxima. Intensity profiles (lower panel) taken across a set frame are shown for both COMPOUND 5 and Comparator.
Live HeLa cells were stained with a Comparator (250 nM, 45 min) and were then fixed (4% PFA, 20 min). After fixation, COMPOUND 5 (75 nM) was added and the cells were imaged. COMPOUND 5 and Comparator have distinct absorption and emission profiles and spill over between channels was not observed. Intensity profiles for both mitochondrial stains were taken across a set frame (lower panel) and compared.

[4] = system: mitochondria in HeLa cells; assay: Co-staining of COMPOUND 5 with DRP1 antibody NBP2-23489 on fixed, permeabilized HeLa cells; settings: 200 nM, 15 minutes, room temperature
Procedure: NBP2-23489 was incubated on fixed, permeabilized HeLa cells at 8 μg/mL for 2 hours at room temperature. Cells were then incubated with an NL557 secondary antibody (R&D Systems; Catalog #NL007) for 1 hour at room temperature protected from light. Lastly, cells were incubated with COMPOUND 5 at 200 nM for 15 minutes at room temperature protected from light. Cells were cover-slipped with a DAPI-containing mounting media and imaged. Antibody staining was pseudo-coloured green, and mitochondrial marker staining was pseudo-coloured red.

[5] = system: mitochondria in HeLa cells; assay: Staining of HeLa cells at a single concentration followed by fixation; settings: 100 nM probe 40 minutes, then 4% PFA 10 minutes
Procedure: In FIG. 5 (scale bar=10 μm), images are shown after HeLa cells were stained with 100 nM probe for 40 minutes, followed by fixation with 4% PFA for 10 minutes. Laser power and gain have been optimized for each individual probe in this figure.

[6] = system: mitochondria in COS-7 cells; assay: Staining of COS-7 cells at varying concentrations followed by PFA fixation, spinning disk confocal imaging; settings: for toxicity at 200 nM: 30 minutes; for mitochondrial staining at low concentrations: then 4% PFA fixation; for effect of high concentration on mitochondria (fragmentation and peri-nuclear clustering suggesting toxic effects): above 200 nM
Procedure: Both COMPOUND 5 and the Comparator show some toxicity at 200 nM. COMPOUND 5 gives nice staining at 25-100 nM.
In FIG. 4 (scale bar=10 μm), images are shown after COS-7 cells were stained for 30 minutes with indicated concentrations followed by immediate fixation with 4% PFA for 20 minutes at 37° C. Images were acquired using a spinning disk confocal microscope with identical exposure time and laser power and were processed with identical settings to allow a direct comparison.

ClCc1ccccc1-c1c2ccc(=[N+]3CCC3)cc-2oc2cc(N3CCC3)ccc12 [COMPOUND 8, 1-(6-(azetidin-1-yl)-9-(2-(chloromethyl)phenyl)-3H-xanthen-3-ylidene)azetidin-1-ium chloride]
co-localization with mitochondrial marker TOM20 after fixation [1]: co-localize with the mitochondrial marker TOM20

C[Si]1(C)C2=CC(=[N+]3CCC3)C=CC2=C(c2ccccc2CCl)c2ccc(N3CCC3)cc21 [COMPOUND 5, 1-(7-(azetidin-1-yl)-10-(2-(chloromethyl)phenyl)-5,5-dimethyldibenzo[b,e]silin-3(5H)-ylidene)azetidin-1-ium chloride]
mitochondrial signal after CCCP Chase (depolarization after staining) [2]: strong mitochondrial signal
mitochondrial accumulation after depolarizing the membrane potential with CCCP before staining [2]: reduces the mitochondrial accumulation
speed of mitochondrial staining relative to Comparator ([2]; inferred from CCCP chase): more rapidly than the Comparator
staining profile when added after fixation, compared with Comparator added before fixation [3]: very high similarity in staining profile
mitochondrial localization (overlap with antibody staining) [4]: localizes specifically to the mitochondria
staining of mitochondria following fixation compared to a Comparator [5]: retains clearer staining of mitochondria
toxicity at 200 nM ([6]; COS-7 cells): some toxicity
toxicity at low concentrations ([6]; COS-7 cells, 25-100 nM, 30 min): no obvious toxicity
mitochondrial staining at low concentrations ([6]; COS-7 cells, 25-100 nM, 30 min): good mitochondrial signal with little background
effect of high concentration on mitochondria (fragmentation and peri-nuclear clustering suggesting toxic effects) ([6]; COS-7 cells): mitochondrial alterations
staining of non-mitochondrial structures (ER, nuclear envelope) at high concentrations ([6]; COS-7 cells): stained additionally other cellular structures
brightness compared to the Comparator ([6]; fixed COS-7 cells, particularly at 25 nM and 50 nM): significantly improved brightness

C[N+]1=C(/C=C/C=C/C=C2\N(Cc3ccc(CCl)cc3)c3ccccc3C2(C)C)C(C)(C)c2ccccc21.[Cl-] [Comparator, MitoTracker Deep Red FM, reference compound]
mitochondrial signal after CCCP Chase (depolarization after staining) [2]: reversible
mitochondrial accumulation after depolarizing the membrane potential with CCCP before staining [2]: reduces the mitochondrial accumulation
toxicity at 200 nM ([6]; COS-7 cells): some toxicity
mitochondrial staining at low concentrations ([6]; COS-7 cells, 25-100 nM, 30 min): decreased at low concentration
effect of high concentration on mitochondria (fragmentation and peri-nuclear clustering suggesting toxic effects) ([6]; COS-7 cells): mitochondrial alterations
staining of non-mitochondrial structures (ER, nuclear envelope) at high concentrations ([6]; COS-7 cells): stained additionally other cellular structures

COC1CN(c2ccc3c(-c4ccccc4CCl)c4ccc(=[N+]5CC(OC)C5)cc-4oc3c2)C1 (centres unmarked) [COMPOUND 9, 1-(9-(2-(chloromethyl)phenyl)-6-(3-methoxyazetidin-1-yl)-3H-xanthen-3-ylidene)-3-methoxyazetidin-1-ium chloride]
co-localization with mitochondrial marker TOM20 after fixation [1]: co-localize with the mitochondrial marker TOM20
